{
  "source": "patent US7288562B2",
  "about": "“Fluoro and sulphonylamino containing 3,6-disubstituted azabicyclo (3.1.0) hexane derivatives as muscarinic receptor antagonists” (priority 2002, dated 2007)",
  "key": {"isolated rat bladder": {"system": "isolated rat bladder", "experiment": "Functional experiments using isolated rat bladder (carbachol-induced contraction)", "settings": "isolated rat bladder strips, carbachol concentration response curve", "experimental": "Functional Experiments Using Isolated Rat Bladder:\nAnimals were euthanized by overdose of urethane and whole bladder was isolated and removed rapidly and placed in ice cold Tyrode buffer with the following composition (mMol/L) NaCl 137; KCl 2.7; CaCl2 1.8; MgCl2 0.1; NaHCO3 11.9; NaH2PO4 0.4; Glucose 5.55 and continuously gassed with 95% O2 and 5% CO2.\nThe bladder was cut into longitudinal strips (3 mm wide and 5-6 mm long) and mounted in 10 ml organ baths at 30° C., with one end connected to the base of the tissue holder and the other end connected to a polygraph through a force displacement transducer. Each tissue was maintained at a constant basal tension of 2 g and allowed to equilibrate for 1 hour during which the PSS was changed every 15 min. At the end of equilibration period the stabilization of the tissue contractile response was assessed with 1 μmol/L of Carbachol consecutively for 2-3 times. Subsequently a cumulative concentration response curve to carbachol (10^−9 mol/L to 3×10^−5 mol/L) was obtained. After several washes, once the baseline was achieved, cumulative concentration response curve was obtained in presence of NCE (NCE added 20 min. prior to the second CRC).\nThe contractile results were expressed as % of control E max. ED50 values were calculated by fitting a non-linear regression curve (Graph Pad Prism). pKB values were calculated by the formula pKB=−log [(molar concentration of antagonist/(dose ratio-1))]\n• dose ratio=ED50 in the presence of antagonist/ED50 in the absence of antagonist."}, "M3 muscarinic receptor": {"biological_target": "T1, M3 muscarinic receptor (Rattus norvegicus, UniProt P08483)", "T1 construct": "from tissue; host or cells: rat submandibular gland membrane homogenate", "T1 sequence (P08483 whole entry)": "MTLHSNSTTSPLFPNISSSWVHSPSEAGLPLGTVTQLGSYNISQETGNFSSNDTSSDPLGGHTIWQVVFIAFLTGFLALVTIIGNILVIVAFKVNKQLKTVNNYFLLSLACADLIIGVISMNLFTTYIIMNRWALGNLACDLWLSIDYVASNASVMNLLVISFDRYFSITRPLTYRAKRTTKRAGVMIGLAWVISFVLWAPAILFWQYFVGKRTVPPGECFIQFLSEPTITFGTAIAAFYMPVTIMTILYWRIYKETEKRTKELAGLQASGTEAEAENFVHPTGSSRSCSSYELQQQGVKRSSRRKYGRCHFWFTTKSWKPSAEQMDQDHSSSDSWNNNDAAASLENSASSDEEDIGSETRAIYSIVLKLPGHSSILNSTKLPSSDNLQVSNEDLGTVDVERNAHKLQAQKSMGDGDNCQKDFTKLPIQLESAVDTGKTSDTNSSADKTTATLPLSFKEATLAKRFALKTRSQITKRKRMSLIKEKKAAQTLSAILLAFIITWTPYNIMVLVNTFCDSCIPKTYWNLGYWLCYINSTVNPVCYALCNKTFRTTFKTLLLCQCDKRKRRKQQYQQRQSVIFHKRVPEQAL", "experiment": "Radioligand binding assay, [3H]-N-methylscopolamine, rat submandibular gland membranes", "settings": "[3H]-NMS", "experimental": "(§1) The affinity of test compounds for M2 and M3 muscarinic receptor subtypes was determined by [^3H]-N-methylscopolamine binding studies using rat heart and submandibular gland respectively as described by Moriya et al., (Life Sci, 1999, 64(25):2351-2358) with minor modifications.\n(§2) Membrane preparation: Submandibular glands and heart were isolated and placed in ice cold homogenising buffer (HEPES 20 mM, 10 mM EDTA, pH 7.4) immediately after sacrifice. The tissues were homogenised in 10 volumes of homogenising buffer and the homogenate was filtered through two layers of wet gauze and filtrate was centrifuged at 500 g for 10 min. The supernatant was subsequently centrifuged at 40,000 g for 20 min. The pellet thus obtained was resuspended in same volume of assay buffer (HEPES 20 mM, EDTA 5 mM, pH 7.4) and were stored at −70° C. until the time of assay.\n(§3) Ligand binding assay: The compounds were dissolved and diluted in DMSO. The membrane homogenates (150-250 μg protein) were incubated in 250 μl of assay buffer (HEPES 20 mM, pH 7.4) at 24-25° C. for 3 h. Non-specific binding was determined in the presence of 1 μM atropine. The incubation was terminated by vacuum filtration over GF/B fiber filters(Wallac). The filters were then washed with ice cold 50 mM Tris HCl buffer (pH 7.4). The filter mats were dried and bound radioactivity retained on filters was counted. The IC50 & Kd were estimated by using the non-linear curve fitting program using G Pad Prism software. The value of inhibition constant Ki was calculated from competitive binding studies by using Cheng & Prusoff equation (Biochem Pharmacol, 1973, 22: 3099-3108), Ki=IC50/(1+L/Kd), where L is the concentration of\n(§4) [^3H]NMS used in the particular experiment."}, "M2 muscarinic receptor": {"biological_target": "T2, M2 muscarinic receptor (Rattus norvegicus, UniProt P10980)", "T2 construct": "from tissue; host or cells: rat heart membrane homogenate", "T2 sequence (P10980 1-466)": "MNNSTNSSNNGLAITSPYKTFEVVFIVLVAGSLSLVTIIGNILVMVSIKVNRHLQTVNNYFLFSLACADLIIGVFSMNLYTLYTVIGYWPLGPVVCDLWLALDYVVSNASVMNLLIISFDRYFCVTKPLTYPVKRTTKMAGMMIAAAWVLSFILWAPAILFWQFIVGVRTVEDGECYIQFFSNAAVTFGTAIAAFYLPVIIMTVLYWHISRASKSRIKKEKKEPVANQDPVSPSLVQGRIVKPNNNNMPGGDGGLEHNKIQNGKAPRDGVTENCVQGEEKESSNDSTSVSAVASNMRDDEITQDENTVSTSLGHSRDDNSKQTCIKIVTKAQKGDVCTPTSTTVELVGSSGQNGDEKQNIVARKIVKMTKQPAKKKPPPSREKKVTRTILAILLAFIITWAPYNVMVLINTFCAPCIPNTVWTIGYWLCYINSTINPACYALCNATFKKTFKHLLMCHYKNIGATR", "experiment": "Radioligand binding assay, [3H]-N-methylscopolamine, rat heart membranes", "settings": "[3H]-NMS", "experimental": "as §1, §2, §3, §4"}, "[1]": {"settings": "read-out: Receptor Binding Assay M3 pKi (converted)"}, "[2]": {"settings": "read-out: Receptor Binding Assay M2 pKi (converted)"}},
  "note": "Like-named read-outs stand apart in the source and are kept apart here.",
  "data": [
    {"smiles": "O=C(NCC1C2CN(Cc3ccccc3)CC12)C(O)(c1ccccc1)C1CCC(F)(F)C1", "note": "(mixture of isomers) [Compound No. 3, (2Ror 2S)-(1α,5α,6α)-N-[3-benzyl-3-azabicyclo[3.1.0]hexyl-6-(aminomethyl)-yl]-2-[(1R or 1S)-3,3-difluorocyclopentyl]-2-hydroxy-2-phenyl acetamide]", "values": [
      {"measurement": "Functional Assay pKB", "setting": "isolated rat bladder", "result": "8.55 ± 0.25"},
      {"measurement": "Ki", "setting": "M3 muscarinic receptor; [1]", "result": 0.00631, "unit": "µM"},
      {"measurement": "Ki", "setting": "M2 muscarinic receptor; [2]", "result": 0.251, "unit": "µM"}
    ]},
    {"smiles": "O=C(NC[C@@H]1[C@H]2CN(Cc3ccccc3)C[C@@H]12)[C@](O)(c1ccccc1)C1CCC(F)(F)C1", "note": "(single isomer, unassigned) [Compound No. 1A, (2R)-(1α,5α,6α)-N-[3-benzyl-3-azabicyclo[3.1.0]hexyl-6-(aminomethyl)-yl]-2-[(1R or 1S)-3,3-difluorocyclopentyl]-2-hydroxy-2-phenylacetamide]", "values": [
      {"measurement": "Functional Assay pKB", "setting": "isolated rat bladder", "result": "9.1 ± 0.2"},
      {"measurement": "Ki", "setting": "M3 muscarinic receptor; [1]", "result": 0.00562, "unit": "µM"},
      {"measurement": "Ki", "setting": "M2 muscarinic receptor; [2]", "result": 0.135, "unit": "µM"}
    ]},
    {"smiles": "O=C(NC[C@@H]1[C@H]2CN(Cc3ccccc3)C[C@@H]12)[C@](O)(c1ccccc1)C1CCC(F)(F)C1", "note": "(single isomer, unassigned) [Compound No. 1B, (2R)-(1α,5α,6α)-N-[3-benzyl-3-azabicyclo[3.1.0]hexyl-6-(aminomethyl)-yl]-2-[(1R or 1S)-3,3-difluorocyclopentyl]-2-hydroxy-2-phenylacetamide]", "values": [
      {"measurement": "Functional Assay pKB", "setting": "isolated rat bladder", "result": "8.98 ± 0.06"},
      {"measurement": "Ki", "setting": "M3 muscarinic receptor; [1]", "result": 0.00617, "unit": "µM"},
      {"measurement": "Ki", "setting": "M2 muscarinic receptor; [2]", "result": 0.229, "unit": "µM"}
    ]},
    {"smiles": "O=C(NCC1C2CN(Cc3ccccc3)CC12)C(O)(c1ccccc1)C1CCC(F)C1", "note": "(single isomer, unassigned) [Compound No. 4, (2R or 2S)-(1α,5α,6α)-N-[3-benzyl-3-azabicyclo[3.1.0]hexyl-6-(aminomethyl)-yl]-2-[(1R or 1S, 3R or 3S)-3-fluorocyclopentyl]-2-hydroxy-2-phenyl acetamide]", "values": [
      {"measurement": "Functional Assay pKB", "setting": "isolated rat bladder", "result": "8.33 ± 0.15"},
      {"measurement": "Ki", "setting": "M3 muscarinic receptor; [1]", "result": 0.00589, "unit": "µM"},
      {"measurement": "Ki", "setting": "M2 muscarinic receptor; [2]", "result": 0.138, "unit": "µM"}
    ]},
    {"smiles": "O=C(NCC1C2CN(Cc3ccccc3)CC12)C(O)(c1ccccc1)C1CCC(NS(=O)(=O)c2ccc([N+](=O)[O-])cc2)C1", "note": "(single isomer, unassigned) [Compound No. 6, (2R)-(1α,5α,6α)-N-[3-benzyl-3-azabicyclo[3.1.0]hexyl-6-(aminomethyl)-yl]-2-[(1R or 1S, 3R or 3S)-3-(4-nitrophenyl)sulphonylaminocyclopentyl]-2-hydroxy-2-phenylacetamide]", "values": [
      {"measurement": "Functional Assay pKB", "setting": "isolated rat bladder", "result": "7.21 ± 0.20"},
      {"measurement": "Ki", "setting": "M3 muscarinic receptor; Receptor Binding Assay M3 pKi", "result": 0.0219, "unit": "µM"},
      {"measurement": "Ki", "setting": "M2 muscarinic receptor; Receptor Binding Assay M2 pKi", "result": "> 1.58", "unit": "µM"}
    ]},
    {"smiles": "O=C(COCc1ccccc1)NC1CCC(C(O)(C(=O)NCC2C3CN(Cc4ccccc4)CC23)c2ccccc2)C1", "note": "(single isomer, unassigned) [Compound No. 8, (2R)-(1α,5α,6α)-N-[3-benzyl-3-azabicyclo[3.1.0]hexyl-6-(aminomethyl)-yl]-2-[(1R or 1S, 3R or 3S)-3-benzyloxyacetylaminocyclopentyl]-2-hydroxy-2-phenylacetamide]", "values": [
      {"measurement": "Functional Assay pKB", "setting": "isolated rat bladder", "result": "7.08 ± 0.18"},
      {"measurement": "Ki", "setting": "M3 muscarinic receptor; [1]", "result": 0.0347, "unit": "µM"},
      {"measurement": "Ki", "setting": "M2 muscarinic receptor; [2]", "result": 0.209, "unit": "µM"}
    ]},
    {"smiles": "O=C(NC[C@@H]1[C@H]2CN(Cc3ccccc3)C[C@@H]12)[C@](O)(c1ccccc1)C1CCC(F)C1", "note": "(stereo partly drawn) [Compound No. 2, (2R(1α,5α,6α)-N-[3-benzyl-3-azabicyclo[3.1.0]hexyl-6-(aminomethyl)-yl]-2-[(1R or 1S, 3R or 3S)-3-fluorocyclopentyl]-2-hydroxy-2-phenylacetamide]", "values": [
      {"measurement": "Functional Assay pKB", "setting": "isolated rat bladder", "result": "8.84 ± 0.07"},
      {"measurement": "Ki", "setting": "M3 muscarinic receptor; [1]", "result": 0.00398, "unit": "µM"},
      {"measurement": "Ki", "setting": "M2 muscarinic receptor; [2]", "result": 0.126, "unit": "µM"}
    ]},
    {"smiles": "O=C(Cc1ccccc1)NC1CCC([C@](O)(C(=O)NC[C@@H]2[C@H]3CN(Cc4ccccc4)C[C@@H]23)c2ccccc2)C1", "note": "(stereo partly drawn) [Compound No. 5, (2R)-(1α,5α,6α)-N-[3-benzyl-3-azabicyclo[3.1.0]hexyl-6-(aminomethyl)-yl]-2-[(1R or 1S, 3R or 3S)-3-phenylacetylaminocyclopentyl]-2-hydroxy-2-phenylacetamide]", "values": [
      {"measurement": "Functional Assay pKB", "setting": "isolated rat bladder", "result": "7.07 ± 0.11"},
      {"measurement": "Ki", "setting": "M3 muscarinic receptor; [1]", "result": 0.0398, "unit": "µM"},
      {"measurement": "Ki", "setting": "M2 muscarinic receptor; [2]", "result": 0.832, "unit": "µM"}
    ]},
    {"smiles": "O=C(NC[C@@H]1[C@H]2CN(Cc3ccccc3)C[C@@H]12)[C@](O)(c1ccccc1)C1CCC(NS(=O)(=O)c2ccccc2)C1", "note": "(stereo partly drawn) [Compound No. 7, (2R)-(1α,5α,6α)-N-[3-benzyl-3-azabicyclo[3.1.0]hexyl-6-(aminomethyl)-yl]-2-[(1R or 1S, 3R or 3S)-3-phenylsulphonylaminocyclopentyl]-2-hydroxy-2-phenylacetamide]", "values": [
      {"measurement": "Functional Assay pKB", "setting": "isolated rat bladder", "result": "6.89 ± 0.29"},
      {"measurement": "Ki", "setting": "M3 muscarinic receptor; Receptor Binding Assay M3 pKi", "result": 0.0501, "unit": "µM"},
      {"measurement": "Ki", "setting": "M2 muscarinic receptor; Receptor Binding Assay M2 pKi", "result": "> 1.58", "unit": "µM"}
    ]},
    {"smiles": "COc1ccc(S(=O)(=O)NC2CCC([C@](O)(C(=O)NC[C@@H]3[C@H]4CN(Cc5ccccc5)C[C@@H]34)c3ccccc3)C2)cc1", "note": "(stereo partly drawn) [Compound No. 9, (2R)-(1α,5α,6α)-N-[3-benzyl-3-azabicyclo[3.1.0]hexyl-6-(aminomethyl)-yl]-2-[(1R or 1S, 3R or 3S)-3-(4-methoxyphenyl)sulphonylaminocyclopentyl]-2-hydroxy-2-phenylacetamide]", "values": [
      {"measurement": "Ki", "setting": "M3 muscarinic receptor; Receptor Binding Assay M3 pKi", "result": 0.204, "unit": "µM"},
      {"measurement": "Ki", "setting": "M2 muscarinic receptor; Receptor Binding Assay M2 pKi", "result": "> 1", "unit": "µM"}
    ]},
    {"smiles": "O=C(NC[C@@H]1[C@H]2CN(Cc3ccccc3)C[C@@H]12)[C@](O)(c1ccccc1)C1CCC(NS(=O)(=O)c2ccc(Br)cc2)C1", "note": "(stereo partly drawn) [Compound No. 10, (2R)-(1α,5α,6α)-N-[3-benzyl-3-azabicyclo[3.1.0]hexyl-6-(aminomethyl)-yl]-2-[(1R or 1S, 3R or 3S)-3-(4-bromophenyl)sulphonylaminocyclopentyl]-2-hydroxy-2-phenylacetamide]", "values": [
      {"measurement": "Ki", "setting": "M3 muscarinic receptor; Receptor Binding Assay M3 pKi", "result": 0.129, "unit": "µM"},
      {"measurement": "Ki", "setting": "M2 muscarinic receptor; Receptor Binding Assay M2 pKi", "result": "> 1", "unit": "µM"}
    ]}
  ]
}
